# From paper PMC8496750, “Identification of the organic anion transporting polypeptides responsible for the hepatic uptake of the major metabolite of epyrifenacil, S‐3100‐CA, in mice” (Pharmacology Research & Perspectives, 2021)
# Tests used:
# Details in all cases: 10‐min incubation
# human OATP2B1 = molecular target: T1, human OATP2B1 (Homo sapiens, UniProt O94956); experiment: Uptake assay for radiolabeled substrates, human OATP2B1 expressing 293FT cells; type: in vitro ADME
# T1 construct: expressed in transfected cells; host or cells: 293FT cells
# T1 sequence (O94956 1-709): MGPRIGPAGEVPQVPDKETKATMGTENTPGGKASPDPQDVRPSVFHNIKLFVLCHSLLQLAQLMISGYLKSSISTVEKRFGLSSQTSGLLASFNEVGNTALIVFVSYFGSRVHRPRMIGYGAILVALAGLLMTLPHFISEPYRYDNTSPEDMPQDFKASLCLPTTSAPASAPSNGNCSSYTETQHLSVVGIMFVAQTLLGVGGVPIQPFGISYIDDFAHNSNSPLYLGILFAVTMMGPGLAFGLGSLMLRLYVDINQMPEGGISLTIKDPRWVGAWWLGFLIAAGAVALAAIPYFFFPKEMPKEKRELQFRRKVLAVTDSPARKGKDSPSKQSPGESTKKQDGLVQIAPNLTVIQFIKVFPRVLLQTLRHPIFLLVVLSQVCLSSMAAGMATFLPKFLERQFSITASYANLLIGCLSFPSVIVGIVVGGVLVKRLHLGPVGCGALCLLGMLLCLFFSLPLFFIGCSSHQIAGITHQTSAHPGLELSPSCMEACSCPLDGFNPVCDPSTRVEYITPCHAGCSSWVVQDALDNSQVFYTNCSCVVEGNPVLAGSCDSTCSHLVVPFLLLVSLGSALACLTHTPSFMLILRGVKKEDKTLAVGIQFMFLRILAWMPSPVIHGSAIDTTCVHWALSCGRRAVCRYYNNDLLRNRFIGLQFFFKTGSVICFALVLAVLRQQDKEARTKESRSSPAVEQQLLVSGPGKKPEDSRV
# Protocol: (§1) 293FT cells were purchased from Thermo Fisher Scientific, Inc.. The cells were grown in Dulbecco's modified Eagle medium (supplemented with 4.5 g/L glucose and 2 mM L‐glutamine) at 37°C, 5% CO2, and 95% humidity. The cells were passaged 3 times per week by harvesting cells using trypsin and plating at a density of 1.0 × 10^4 cells/cm^2 in a 10 cm cell culture plate for maintenance culture. The 293FT cells were detached using trypsin and re‐seeded at a density of 2.5 × 10^4 cells/cm^2 in BioCoat™ Collagen I 6‐well plates (Corning Inc.) for transfection and then treated with 1.2 μg of plasmid vector and 3.2 μl of Lipofectamine™ 2000 Transfection Reagent (Thermo Fisher Scientific, Inc.) according to the manufacturer's instructions. After a 3‐h treatment, the transfection medium was replaced with a fresh cell culture medium and incubated at 37°C with 95% humidity and 5% CO2 until ready for the assay.
# (§2) Transport experiments were conducted approximately 24 h post‐transfection. The experiments were initiated by aspirating culture medium and addition of pre‐warmed radiolabeled substrate solution (final 1.0% of acetonitrile or 0.9% of ethanol in phosphate‐buffered saline (PBS[−])) to each well. After a 10‐min incubation, cells were washed twice with 1 ml of ice‐cold PBS(−) and lysed with 700 μl of 1.0 M NaOH for 3 h or more at room temperature. The lysate was transferred to a 1.5‐ml tube, and neutralized with 350 μl of 2.0 M HCl and 350 μl of 2.0% sodium dodecyl sulfate (SDS) solution. From the lysate, 1.0 ml was transferred to a vial containing 10 ml of Emulsifier Scintillator Plus to measure the radioactivity in the LSC. The protein concentration of the cell lysate was also measured using a Pierce™ BCA Protein Assay Kit (Thermo Fisher Scientific, Inc.), which was used to normalize, according to the cell number, the radioactivity in the cell lysate extract. The protein assay was performed in duplicate. Each sample type was assayed in triplicate wells, and each run was performed twice. When the difference in mean uptake between OATP expressing cells and mock cells was more than 2 times, the OATP was judged to be involved in transportation of the substrate. […] Each sample type was assayed in triplicate wells.
# mouse Oatp1b2 = molecular target: T2, mouse Oatp1b2 (Mus musculus, UniProt Q9JJL3); experiment: Uptake assay for radiolabeled substrates, mouse Oatp1b2 expressing 293FT cells
# T2 sequence (Q9JJL3 1-689): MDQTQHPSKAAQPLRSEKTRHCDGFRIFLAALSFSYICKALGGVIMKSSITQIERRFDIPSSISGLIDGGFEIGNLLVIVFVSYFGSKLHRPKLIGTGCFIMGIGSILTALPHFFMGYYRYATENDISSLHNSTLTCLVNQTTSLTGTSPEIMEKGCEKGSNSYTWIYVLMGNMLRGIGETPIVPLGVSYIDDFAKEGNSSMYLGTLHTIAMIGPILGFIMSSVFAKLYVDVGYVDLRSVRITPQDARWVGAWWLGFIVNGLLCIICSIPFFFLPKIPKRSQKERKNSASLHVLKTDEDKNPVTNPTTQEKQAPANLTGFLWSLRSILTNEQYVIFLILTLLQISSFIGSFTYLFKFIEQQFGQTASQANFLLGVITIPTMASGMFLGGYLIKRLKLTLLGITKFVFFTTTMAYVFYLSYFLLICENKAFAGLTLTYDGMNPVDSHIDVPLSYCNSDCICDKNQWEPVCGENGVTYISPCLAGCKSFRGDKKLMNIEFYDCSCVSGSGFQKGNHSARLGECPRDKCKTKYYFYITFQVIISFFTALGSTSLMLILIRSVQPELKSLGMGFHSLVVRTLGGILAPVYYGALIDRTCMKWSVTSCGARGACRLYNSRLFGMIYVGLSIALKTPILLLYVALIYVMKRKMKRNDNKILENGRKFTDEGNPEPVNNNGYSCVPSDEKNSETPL
# Protocol: as §1, §2
# rat Oatp1a4 = molecular target: T3, rat Oatp1a4 (Rattus norvegicus, UniProt O35913); experiment: Uptake assay for radiolabeled substrates, rat Oatp1a4 expressing 293FT cells
# T3 sequence (O35913 1-661): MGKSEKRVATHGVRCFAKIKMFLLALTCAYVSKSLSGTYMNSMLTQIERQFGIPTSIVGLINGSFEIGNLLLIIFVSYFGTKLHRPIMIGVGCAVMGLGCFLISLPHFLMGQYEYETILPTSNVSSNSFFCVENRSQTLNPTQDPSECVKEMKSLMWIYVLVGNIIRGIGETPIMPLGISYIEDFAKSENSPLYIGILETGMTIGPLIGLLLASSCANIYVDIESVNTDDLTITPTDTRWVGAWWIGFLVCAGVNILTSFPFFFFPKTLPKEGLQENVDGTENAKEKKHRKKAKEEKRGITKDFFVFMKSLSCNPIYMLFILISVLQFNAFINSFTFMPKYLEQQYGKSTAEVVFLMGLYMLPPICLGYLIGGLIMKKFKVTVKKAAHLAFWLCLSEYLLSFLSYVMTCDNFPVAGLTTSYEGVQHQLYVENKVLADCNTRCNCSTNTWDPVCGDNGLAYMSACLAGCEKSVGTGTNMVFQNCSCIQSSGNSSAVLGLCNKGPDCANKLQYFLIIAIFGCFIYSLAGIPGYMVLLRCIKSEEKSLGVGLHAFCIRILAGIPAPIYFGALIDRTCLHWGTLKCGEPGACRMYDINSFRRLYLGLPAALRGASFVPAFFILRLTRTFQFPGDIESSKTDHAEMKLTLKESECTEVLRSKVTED
# Protocol: as §1, §2
Structure (SMILES),Ratio of uptake amount relative to the uptake into mock cells (human OATP2B1; Run_1),Ratio of uptake amount relative to the uptake into mock cells (human OATP2B1; Run_2),Ratio of uptake amount relative to the uptake into mock cells (mouse Oatp1b2; Run_1),Ratio of uptake amount relative to the uptake into mock cells (mouse Oatp1b2; Run_2),Ratio of uptake amount relative to the uptake into mock cells (rat Oatp1a4; Run_1),Ratio of uptake amount relative to the uptake into mock cells (rat Oatp1a4; Run_2)
Cn1c(C(F)(F)F)cc(=O)n(-c2cc(Oc3cccnc3OCC(=O)O)c(Cl)cc2F)c1=O [S‐3100‐CA],2.6,1.9,11.7,6.2,5.0,4.1
"C[C@]12CC[C@@H]3c4ccc(O)cc4CC[C@H]3[C@@H]1CC[C@@H]2O[C@@H]1O[C@H](C(=O)O)[C@@H](O)[C@H](O)[C@H]1O [E217βG, Estradiol 17β‐D‐glucuronide]",1.9,0.6,8.3,14.7,6.1,10.4
"C[C@]12CC[C@@H]3c4ccc(OS(=O)(=O)O)cc4CC[C@H]3[C@@H]1CCC2=O [E3S, Estrone 3‐sulfate]",16.2,1.9,23.8,19.7,2.2,1.4
